{
  "source": "patent US8410117B2",
  "about": "“Imidazopyrimidine derivatives” (Hoffmann-La Roche Inc., priority 2010, dated 2013)",
  "data": [
    {"biological_target": "T1, human PDE10A (Homo sapiens, UniProt Q9Y233)", "T1 construct": "The human PDE10A full length assay; purchased Enzo Life Science, Lausen, Switzerland SE-534", "T1 sequence (Q9Y233 1-779 isoform Q9Y233-1)": "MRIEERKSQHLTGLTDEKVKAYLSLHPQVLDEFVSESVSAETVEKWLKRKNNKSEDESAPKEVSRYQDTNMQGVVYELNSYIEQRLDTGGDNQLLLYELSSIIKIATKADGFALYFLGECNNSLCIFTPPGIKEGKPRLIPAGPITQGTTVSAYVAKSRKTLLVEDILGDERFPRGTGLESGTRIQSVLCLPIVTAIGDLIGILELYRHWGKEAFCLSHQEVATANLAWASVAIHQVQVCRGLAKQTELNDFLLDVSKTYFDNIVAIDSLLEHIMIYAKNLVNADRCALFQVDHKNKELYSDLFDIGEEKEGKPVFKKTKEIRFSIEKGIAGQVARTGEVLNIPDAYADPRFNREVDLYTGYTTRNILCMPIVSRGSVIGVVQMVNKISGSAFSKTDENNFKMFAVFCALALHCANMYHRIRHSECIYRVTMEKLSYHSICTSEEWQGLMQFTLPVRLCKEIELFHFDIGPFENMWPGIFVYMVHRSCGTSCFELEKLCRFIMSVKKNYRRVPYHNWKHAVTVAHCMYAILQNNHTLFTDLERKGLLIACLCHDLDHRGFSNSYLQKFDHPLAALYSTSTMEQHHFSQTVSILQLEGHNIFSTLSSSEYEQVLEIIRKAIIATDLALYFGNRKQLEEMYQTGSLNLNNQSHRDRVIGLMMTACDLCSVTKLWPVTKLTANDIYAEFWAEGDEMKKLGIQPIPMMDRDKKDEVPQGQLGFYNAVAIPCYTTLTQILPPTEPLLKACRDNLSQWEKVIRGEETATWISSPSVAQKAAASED", "experiment": "human PDE10A full length Scintillation Proximity Assay (SPA)", "assay_type": "biochemical", "conditions": "50 nM cGMP and 50 nM [3H]-cGMP, 20 minutes at room temperature; read-out: PDE10A inhibition IC50", "procedure": "The following test was carried out in order to determine the activity of the compounds of the present invention. PDE10 activity of the compounds of the present invention was determined using a Scintillation Proximity Assay (SPA)-based method similar to the one previously described (Fawcett, L. et al., Proc Natl Acad Sci USA (2000) 97(7):3702-3707).\nThe human PDE10A full length assay was performed in 96-well micro titer plates. The reaction mixture of 50 μl contained 20 mM HEPES pH=7.5/10 mM MgCl2/0.05 mg/ml BSA (Sigma cat. #A-7906), 50 nM cGMP (Sigma, cat. #G6129) and 50 nM [^3H]-cGMP (GE Healthcare, cat. #TRK392 S.A. 13.2 Ci/mmol), 3.75 ng/well PDE10A enzyme (Enzo Life Science, Lausen, Switzerland cat #SE-534) with or without a specific test compound. A range of concentrations of the potential inhibitor was used to generate data for calculating the concentration of inhibitor resulting in 50% of the effect (e.g. IC50, the concentration of the competitor inhibiting PDE10A activity by 50%). Non-specific activity was tested without the enzyme. The reaction was initiated by the addition of the substrate solution (cGMP and [^3H]-cGMP) and allowed to progress for 20 minutes at room temperature. The reaction was terminated by adding 25 μl of YSi-SPA scintillation beads (GE Healthcare, cat. #RPNQ0150) in 18 mM zinc sulphate solution (stop reagent). After 1 h under shaking, the plate was centrifuged one minute at 170 g to allow beads to settle. Afterwards, radioactive counts were measured on a Perkin Elmer TopCount Scintillation plate reader.", "units": {"IC50": "nM"}, "values": [
      {"smiles": "Cn1ncc(C(=O)N2CCOCC2)c1C(=O)Nc1ccn2cc(-c3ccccc3)nc2n1", "note": "[Example 30, 2-Methyl-4-(morpholine-4-carbonyl)-2H-pyrazole-3-carboxylic acid (2-phenyl-imidazo[1,2-a]pyrimidin-7-yl)-amide]", "IC50": 33.1},
      {"smiles": "CNC(=O)c1cnn(C)c1C(=O)Nc1ccn2cc(-c3cccc(Cl)c3)nc2n1", "note": "[Example 32, 2-Methyl-2H-pyrazole-3,4-dicarboxylic acid 3-{[2-(3-chloro-phenyl)-imidazo[1,2-a]pyrimidin-7-yl]-amide}4-methylamide]", "IC50": 22.8},
      {"smiles": "Cn1ncc(C(=O)N2CC(F)(F)C2)c1C(=O)Nc1ccn2cc(-c3ccccc3)nc2n1", "note": "[Example 34, 4-(3,3-Difluoro-azetidine-1-carbonyl)-2-methyl-2H-pyrazole-3-carboxylic acid (2-phenyl-imidazo[1,2-a]pyrimidin-7-yl)-amide]", "IC50": 35},
      {"smiles": "Cn1ncc(C(=O)N2CC(O)C2)c1C(=O)Nc1ccn2cc(-c3ccccc3)nc2n1", "note": "[Example 36, 4-(3-Hydroxy-azetidine-1-carbonyl)-2-methyl-2H-pyrazole-3-carboxylic acid (2-phenyl-imidazo[1,2-a]pyrimidin-7-yl)-amide]", "IC50": 32},
      {"smiles": "Cn1ncc(C(=O)NCCCO)c1C(=O)Nc1ccn2cc(-c3ccccc3)nc2n1", "note": "[Example 38]", "IC50": 22.9},
      {"smiles": "COCCCNC(=O)c1cnn(C)c1C(=O)Nc1ccn2cc(-c3ccccc3)nc2n1", "note": "[Example 39, 2-Methyl-2H-pyrazole-3,4-dicarboxylic acid 4-[(3-methoxy-propyl)-amide]3-[(2-phenyl-imidazo[1,2-a]pyrimidin-7-yl)-amide]]", "IC50": 86.4},
      {"smiles": "O=C(NCC(F)(F)F)c1nccnc1C(=O)Nc1ccn2cc(-c3ccccc3)nc2n1", "note": "[Example 43, Pyrazine-2,3-dicarboxylic acid 2-[(2-phenyl-imidazo[1,2-a]pyrimidin-7-yl)-amide]3-[(2,2,2-trifluoro-ethyl)-amide]]", "IC50": 900},
      {"smiles": "O=C(Nc1ccn2cc(-c3ccccc3)nc2n1)c1cccnc1C(=O)N1CCC1", "note": "[Example 44, 2-(Azetidine-1-carbonyl)-N-(2-phenyl-imidazo[1,2-a]pyrimidin-7-yl)-nicotinamide]", "IC50": 813},
      {"smiles": "COc1cccc(-c2cn3ccc(NC(=O)c4c(C(=O)N5CCC5)cnn4C)nc3n2)c1", "note": "[Example 45, 4-(Azetidine-1-carbonyl)-2-methyl-2H-pyrazole-3-carboxylic acid [2-(3-methoxy-phenyl)-imidazo[1,2-a]pyrimidin-7-yl]-amide]", "IC50": 8.3},
      {"smiles": "COCCNC(=O)c1cnn(C)c1C(=O)Nc1ccn2cc(-c3ccccc3)nc2n1", "note": "[Example 46, 2-Methyl-2H-pyrazole-3,4-dicarboxylic acid 4-[(2-methoxy-ethyl)-amide]3-[(2-phenyl-imidazo[1,2-a]pyrimidin-7-yl)-amide]]", "IC50": 785},
      {"smiles": "CCN(CC)C(=O)c1cnn(C)c1C(=O)Nc1ccn2cc(-c3ccccc3)nc2n1", "note": "[Example 47, 2-Methyl-2H-pyrazole-3,4-dicarboxylic acid 4-diethylamide 3-[(2-phenyl-imidazo[1,2-a]pyrimidin-7-yl)-amide]]", "IC50": 15.2},
      {"smiles": "Cn1ncc(C(=O)N2CCCC2)c1C(=O)Nc1ccn2cc(-c3ccccc3)nc2n1", "note": "[Example 48, 2-Methyl-4-(pyrrolidine-1-carbonyl)-2H-pyrazole-3-carboxylic acid (2-phenyl-imidazo[1,2-a]pyrimidin-7-yl)-amide]", "IC50": 3.5},
      {"smiles": "CCN(C)C(=O)c1cnn(C)c1C(=O)Nc1ccn2cc(-c3ccccc3)nc2n1", "note": "[Example 49, 2-Methyl-2H-pyrazole-3,4-dicarboxylic acid 4-(ethyl-methyl-amide) 3-[(2-phenyl-imidazo[1,2-a]pyrimidin-7-yl)-amide]]", "IC50": 1.9},
      {"smiles": "CCNC(=O)c1cnn(C)c1C(=O)Nc1ccn2cc(-c3ccccc3)nc2n1", "note": "[Example 50, 2-Methyl-2H-pyrazole-3,4-dicarboxylic acid 4-ethylamide 3-[(2-phenyl-imidazo[1,2-a]pyrimidin-7-yl)-amide]]", "IC50": 24.4},
      {"smiles": "Cn1ncc(C(=O)NC2CC2)c1C(=O)Nc1ccn2cc(-c3ccccc3)nc2n1", "note": "[Example 51, 2-Methyl-2H-pyrazole-3,4-dicarboxylic acid 4-cyclopropylamide 3-[(2-phenyl-imidazo[1,2-a]pyrimidin-7-yl)-amide]]", "IC50": 14.8},
      {"smiles": "Cn1ncc(C(=O)N2CCCCC2)c1C(=O)Nc1ccn2cc(-c3ccccc3)nc2n1", "note": "[Example 52, 2-Methyl-4-(piperidine-1-carbonyl)-2H-pyrazole-3-carboxylic acid (2-phenyl-imidazo[1,2-a]pyrimidin-7-yl)-amide]", "IC50": 2.9},
      {"smiles": "CN(CCO)C(=O)c1cnn(C)c1C(=O)Nc1ccn2cc(-c3ccccc3)nc2n1", "note": "[Example 53, 2-Methyl-2H-pyrazole-3,4-dicarboxylic acid 4-[(2-hydroxy-ethyl)-methyl-amide]3-[(2-phenyl-imidazo[1,2-a]pyrimidin-7-yl)-amide]]", "IC50": 23.6},
      {"smiles": "CC(C)N(C)C(=O)c1cnn(C)c1C(=O)Nc1ccn2cc(-c3ccccc3)nc2n1", "note": "[Example 54, 2-Methyl-2H-pyrazole-3,4-dicarboxylic acid 4-(isopropyl-methyl-amide) 3-[(2-phenyl-imidazo[1,2-a]pyrimidin-7-yl)-amide]]", "IC50": 34.3},
      {"smiles": "COCCN(C)C(=O)c1cnn(C)c1C(=O)Nc1ccn2cc(-c3ccccc3)nc2n1", "note": "[Example 55, 2-Methyl-2H-pyrazole-3,4-dicarboxylic acid 4-[(2-methoxy-ethyl)-methyl-amide]3-[(2-phenyl-imidazo[1,2-a]pyrimidin-7-yl)-amide]]", "IC50": 8.5},
      {"smiles": "CCCN(C)C(=O)c1cnn(C)c1C(=O)Nc1ccn2cc(-c3ccccc3)nc2n1", "note": "[Example 56, 2-Methyl-2H-pyrazole-3,4-dicarboxylic acid 4-(methyl-propyl-amide) 3-[(2-phenyl-imidazo[1,2-a]pyrimidin-7-yl)-amide]]", "IC50": 17.3},
      {"smiles": "CCCNC(=O)c1cnn(C)c1C(=O)Nc1ccn2cc(-c3ccccc3)nc2n1", "note": "[Example 57, 2-Methyl-2H-pyrazole-3,4-dicarboxylic acid 3-[(2-phenyl-imidazo[1,2-a]pyrimidin-7-yl)-amide]-4-propylamide]", "IC50": 23},
      {"smiles": "Cn1ncc(C(=O)NCC2CC2)c1C(=O)Nc1ccn2cc(-c3ccccc3)nc2n1", "note": "[Example 58, 2-Methyl-2H-pyrazole-3,4-dicarboxylic acid 4-cyclopropylmethyl-amide 3-[(2-phenyl-imidazo[1,2-a]pyrimidin-7-yl)-amide]]", "IC50": 27.3},
      {"smiles": "Cn1ncc(C(=O)NC2CCC2)c1C(=O)Nc1ccn2cc(-c3ccccc3)nc2n1", "note": "[Example 59, 2-Methyl-2H-pyrazole-3,4-dicarboxylic acid 4-cyclobutylamide 3-[(2-phenyl-imidazo[1,2-a]pyrimidin-7-yl)-amide]]", "IC50": 21.1},
      {"smiles": "CC(C)NC(=O)c1cnn(C)c1C(=O)Nc1ccn2cc(-c3ccccc3)nc2n1", "note": "[Example 60, 2-Methyl-2H-pyrazole-3,4-dicarboxylic acid 4-isopropylamide 3-[(2-phenyl-imidazo[1,2-a]pyrimidin-7-yl)-amide]]", "IC50": 80.6},
      {"smiles": "Cn1ncc(C(=O)N2CCC2)c1C(=O)Nc1ccn2cc(-c3cccc(OC(F)(F)F)c3)nc2n1", "note": "[Example 61, 4-(Azetidine-1-carbonyl)-2-methyl-2H-pyrazole-3-carboxylic acid [2-(3-trifluoromethoxy-phenyl)-imidazo[1,2-a]pyrimidin-7-yl]-amide]", "IC50": 23.5},
      {"smiles": "CCOC(=O)c1cnn(CC)c1C(=O)Nc1ccn2cc(-c3ccccc3)nc2n1", "note": "[Example 62, 1-Ethyl-5-(2-phenyl-imidazo[1,2-a]pyrimidin-7-ylcarbamoyl)-1H-pyrazole-4-carboxylic acid ethyl ester]", "IC50": 12.9},
      {"smiles": "Cn1ncc(C(=O)N2CCC2)c1C(=O)Nc1ccn2cc(-c3cccc(Cl)c3)nc2n1", "note": "[Example 63, 4-(Azetidine-1-carbonyl)-2-methyl-2H-pyrazole-3-carboxylic acid [2-(3-chloro-phenyl)-imidazo[1,2-a]pyrimidin-7-yl]-amide]", "IC50": 4.8},
      {"smiles": "CCn1ncc(C(=O)NC)c1C(=O)Nc1ccn2cc(-c3ccccc3)nc2n1", "note": "[Example 64, 2-Ethyl-2H-pyrazole-3,4-dicarboxylic acid 4-methylamide 3-[(2-phenyl-imidazo[1,2-a]pyrimidin-7-yl)-amide]]", "IC50": 6.5},
      {"smiles": "CNC(=O)c1[nH]nnc1C(=O)Nc1ccn2cc(-c3ccccc3)nc2n1", "note": "[Example 65, 1H-[1,2,3]Triazole-4,5-dicarboxylic acid 5-methylamide 4-[(2-phenyl-imidazo[1,2-a]pyrimidin-7-yl)-amide]]", "IC50": 34.8},
      {"smiles": "Cn1cc(C(=O)Nc2ccn3cc(-c4ccccc4)nc3n2)c(C(=O)N2CCC2)n1", "note": "[Example 66, 3-(Azetidine-1-carbonyl)-1-methyl-1H-pyrazole-4-carboxylic acid (2-phenyl-imidazo[1,2-a]pyrimidin-7-yl)-amide]", "IC50": 11.5},
      {"smiles": "CCN(C)C(=O)c1nn(C)cc1C(=O)Nc1ccn2cc(-c3ccccc3)nc2n1", "note": "[Example 67, 1-Methyl-1H-pyrazole-3,4-dicarboxylic acid 3-(ethyl-methyl-amide) 4-[(2-phenyl-imidazo[1,2-a]pyrimidin-7-yl)-amide]]", "IC50": 25.7}
    ]}
  ]
}
